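Tested at 5 concentrations; 48 h exposure; 96-well plates; endpoints linearly interpolated, else capped at highest concentration. The concentration for 50% growth inhibition is given as GI50.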 Active and inactive are the calls of the source. Rule as the data show it: active = GI50 up to about 1.1 µM and inactive = higher.
Columns and labels:
Test in all cases: NCI-60 cell line screen, 48 h
SK-MEL-5 = test system: SK-MEL-5
CCRF-CEM = test system: CCRF-CEM
SF-539 = test system: SF-539
MCF7 = test system: MCF7
UACC-257 = test system: UACC-257
U-251 = test system: U-251
RPMI-8226 = test system: RPMI-8226
SK-MEL-28 = test system: SK-MEL-28
LOX IMVI = test system: LOX IMVI
ACHN = test system: ACHN
OVCAR-4 = test system: OVCAR-4
SNB-75 = test system: SNB-75
MOLT-4 = test system: MOLT-4
BT-549 = test system: BT-549
SF-268 = test system: SF-268
KM12 = test system: KM12
OVCAR-5 = test system: OVCAR-5
IGROV-1 = test system: IGROV-1
M14 = test system: M14
SF-295 = test system: SF-295

Compound | GI50 (SK-MEL-5) | GI50 (CCRF-CEM) | GI50 (SF-539) | GI50 (MCF7) | GI50 (UACC-257) | GI50 (U-251) | GI50 (RPMI-8226) | GI50 (SK-MEL-28) | GI50 (LOX IMVI) | GI50 (ACHN) | GI50 (OVCAR-4) | GI50 (SNB-75) | GI50 (MOLT-4) | GI50 (BT-549) | GI50 (SF-268) | GI50 (KM12) | GI50 (OVCAR-5) | GI50 (IGROV-1) | GI50 (M14) | GI50 (SF-295)
CC(=O)c1ccc(O)c(CN(C2CCCCC2)C2CCCCC2)c1O | > 100 µM (inactive) | 0.0611 µM (active) | > 100 µM (inactive) | > 100 µM (inactive) | > 100 µM (inactive) | > 100 µM (inactive) | > 100 µM (inactive) | > 100 µM (inactive) | > 100 µM (inactive) | > 100 µM (inactive) | > 100 µM (inactive) | 2.19 µM (inactive) | 61.4 µM (inactive) | > 100 µM (inactive) | > 100 µM (inactive) | > 100 µM (inactive) | > 100 µM (inactive) | > 100 µM (inactive) | > 100 µM (inactive) | > 100 µM (inactive)
N#Cc1c(-c2ccc(Cl)cc2)c2c([nH]c1=O)-c1cc([N+](=O)[O-])ccc1CCC2 | 16.6 µM (inactive) | 25.2 µM (inactive) | 17.9 µM (inactive) | 24.9 µM (inactive) | 21.1 µM (inactive) | 17.5 µM (inactive) | 86.7 µM (inactive) | 21.2 µM (inactive) | 17.5 µM (inactive) | 25.3 µM (inactive) | 19.6 µM (inactive) | 23.3 µM (inactive) | 38 µM (inactive) | 15.2 µM (inactive) | 17.3 µM (inactive) | 16.4 µM (inactive) | 17.2 µM (inactive) | 21 µM (inactive) | 24.1 µM (inactive) | 11.3 µM (inactive)
O=c1[nH]c2nc3ccccc3c(=O)n2/c1=C/c1ccc(O)cc1 | 52.7 µM (inactive) | 20.8 µM (inactive) | 21.3 µM (inactive) | 31 µM (inactive) | 56.8 µM (inactive) | 26.2 µM (inactive) | 16.9 µM (inactive) | 28.3 µM (inactive) | 35.6 µM (inactive) | 56.1 µM (inactive) | > 100 µM (inactive) | 23.8 µM (inactive) | 31.7 µM (inactive) | 32.1 µM (inactive) | 25.4 µM (inactive) | 29.6 µM (inactive) | > 100 µM (inactive) | 39.2 µM (inactive) | 36.8 µM (inactive) | 46.9 µM (inactive)
O=[N+]([O-])c1ccccc1S(=O)(=O)c1cc(Cl)cc2c1NCCC2 | 29.7 µM (inactive) | 36.1 µM (inactive) | > 100 µM (inactive) | 39.4 µM (inactive) | 35.6 µM (inactive) |  | 44.8 µM (inactive) | 62.8 µM (inactive) | 43.9 µM (inactive) | 56.6 µM (inactive) | > 100 µM (inactive) | 43.4 µM (inactive) | 31.8 µM (inactive) | 26.8 µM (inactive) | > 100 µM (inactive) | 85.9 µM (inactive) | > 100 µM (inactive) | 48.3 µM (inactive) | 63 µM (inactive) | 52.2 µM (inactive)
COC(=O)c1sc2c(c1C(=O)OC)/C(=N/c1ccc(OC)cc1)S/C2=N\c1ccc(OC)cc1 | 1.21 µM (inactive) | 0.104 µM (active) | 0.274 µM (active) | 1.08 µM (active) | 1.32 µM (inactive) | 0.348 µM (active) | 0.275 µM (active) | 1.37 µM (inactive) | 0.258 µM (active) | 1.24 µM (inactive) | 1.35 µM (inactive) | 0.787 µM (active) | 0.248 µM (active) | 1.54 µM (inactive) | 1.55 µM (inactive) | 1.22 µM (inactive) | 1.73 µM (inactive) | 1.2 µM (inactive) | 1.45 µM (inactive) | 1.68 µM (inactive)

From ChEMBL document CHEMBL1201862, “PubChem BioAssay data set” (2004)
